# Results from PubChem BioAssay AID1259334 (Broad Institute, 2017).
# Active and inactive are the calls of the source. Rule as the data show it: active = AC50 below about 11 µM.
# Tested on: B cell line, TNFa signaling counterscreen reporter
# Test: TNFa pathway inhibition counter-screen, B-lineage cells – dose response (AID 1259334);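 also: cells stimulated with TNFa after compound preincubation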
row,Compound,AC50
1,CS(=O)(=O)c1ccc(C(=O)OCC(=O)NC(=O)C2COc3ccccc3O2)cc1[N+](=O)[O-] (stereo unspecified),5.1 µM
2,Cc1ccc(S(=O)(=O)N[C@@H](Cc2ccccc2)C(=O)CCl)cc1,1.2 µM
3,O=C(Nc1ccccn1)c1ccc(-c2ccccc2)cc1,2.91 µM
4,CC(=NNc1ccc2ccccc2n1)c1ccccc1O,1.52 µM
5,CC1CNCCN1S(=O)(=O)c1cccc2cnccc12 (stereo unspecified),7.79 µM
6,COc1cccc(S(=O)(=O)N(C)C[C@H]2OCc3ccccc3-c3c(n(C)c4ccccc34)C(=O)N([C@@H](C)CO)C[C@@H]2C)c1,> 20 µM (inactive)
7,O=C1NC2c3c(Cl)sc(Cl)c3C(=O)C2O1 (stereo unspecified),4.18 µM
8,C[C@H](CO)N1C[C@H](C)[C@H](CN(C)C(=O)Nc2cccc(Cl)c2Cl)OCc2ccccc2-c2c(n(C)c3ccccc23)C1=O,2.81 µM
9,O=S(c1ccccc1O)S(=O)c1ccccc1O (stereo unspecified),> 20 µM (inactive)
10,N#Cc1cccc(-c2ccc(C3[C@@H]4CN(C(=O)Nc5ccc(C(F)(F)F)cc5)C[C@H]3N4)cc2)c1 (stereo partly specified),10 µM
11,CN(C)c1ccc(C(=C2C=CC(=[N+](C)C)C=C2)c2ccc(N(C)C)cc2)cc1,0.099 µM
12,COc1cccc(-c2cc(=O)c3cc(OC)ccc3o2)c1,3.07 µM
13,CC1=CC2OC3CC4OC(=O)C=CC=CC(=O)OCCC(C)C(O)C(=O)OCC2(CC1O)C4(C)C31CO1 (stereo unspecified),0.00511 µM
14,C[C@H](CO)N1C[C@H](C)[C@H](CN(C)CC2CCCCC2)OCCCC[C@H](C)Oc2ccc(NC(=O)Nc3ccc(C(F)(F)F)cc3)cc2C1=O,7.26 µM
15,CC12CCC3C(CCC4(O)CC(O)CCC34C=NO)C1(O)CCC2C1=COC(=O)C1 (stereo unspecified),0.6 µM
16,COc1ccc2cc(-c3cc(C(=O)O)c4ccccc4n3)ccc2c1,6.93 µM
17,C[n+]1c(-c2ccccc2)cc2c(=Cc3ccc([N+](=O)[O-])cc3)c3ccccc3n21,2.96 µM
18,CC1=C(O)C(=O)C=C2C1=CC=C1C2(C)CCC2(C)C3CC(C)(C(=O)O)CCC3(C)CCC12C (stereo unspecified),0.414 µM
19,CC1(C)C(=O)C=C[C@@]2(C)C1C(=O)C(=O)[C@]1(C)C2CC[C@@]2(C)[C@H](c3ccoc3)C[C@H]3O[C@]321 (stereo partly specified),1.74 µM
20,C[C@H]1CN([C@@H](C)CO)C(=O)c2c(c3ccccc3n2C)-c2ccccc2CO[C@H]1CN(C)C(=O)Nc1cccc(C(F)(F)F)c1,> 20 µM (inactive)
21,COc1ccc(S(=O)(=O)Nc2ccc3c(c2)C(=O)N([C@@H](C)CO)C[C@@H](C)[C@@H](CN(C)Cc2ccc(C(F)(F)F)cc2)OCCCC[C@@H](C)O3)cc1,> 20 µM (inactive)
22,c1ccc2sc(-c3ccc4c(c3)OCO4)nc2c1,8.09 µM

row,Compound,AC50
1,C=CC[n+]1c(/C=C2\C=Cc3cc(C)ccc3N2CC)ccc2ccccc21,0.951 µM
2,C[C@@H]1CCCCO[C@@H](CN(C)Cc2ccc(Cl)c(Cl)c2)[C@H](C)CN([C@H](C)CO)C(=O)c2cc(NS(=O)(=O)c3cccs3)ccc2O1,6.39 µM
3,N#C[C@@H]1[C@H](c2ccc(C#CC3CCCCC3)cc2)[C@H](CO)N1C(=O)Nc1ccc(F)cc1,> 20 µM (inactive)
4,COc1ccc2c3c(n(C)c2c1)[C@@H](CO)N(C(=O)Nc1ccc(F)cc1)CC31CN(Cc2ccccc2F)C1,> 20 µM (inactive)
5,O=C(NCCc1ccccc1)c1ccc2nccnc2c1,7.65 µM
6,C[C@H]1O[C@@H](O[C@H]2[C@@H](O)C[C@H](O[C@H]3[C@@H](O)C[C@H](O[C@H]4CC[C@]5(C)C6CC[C@]7(C)[C@@H](C8=CC(=O)OC8)CC[C@]7(O)C6CC[C@@H]5C4)O[C@@H]3C)O[C@@H]2C)C[C@H](O)[C@@H]1O (stereo partly specified),0.444 µM
7,C[C@@H]1CCCCO[C@H](CN(C)CC2CCCCC2)[C@H](C)CN([C@@H](C)CO)C(=O)c2cc(NC(=O)Nc3ccc(C(F)(F)F)cc3)ccc2O1,> 20 µM (inactive)
8,CC1OC(OC2CC(O)C3(CO)C4C(O)CC5(C)C(C6=CC(=O)OC6)CCC5(O)C4CCC3(O)C2)C(O)C(O)C1O (stereo unspecified),0.109 µM
9,O=C(Cn1ncc(Cl)c(Cl)c1=O)NC1CCCCC1,2.42 µM
10,CC(C)(C)[C@H](N)C(=O)N[C@H]1CCC2C3CC=C4C[C@@H](O)CC[C@]4(C)C3CC[C@@]21C (stereo partly specified),4.1 µM
11,CCN1/C(=C/c2sc(-c3ccccc3C)c[n+]2C)Sc2ccccc21,0.574 µM
12,Cc1noc(C)c1S(=O)(=O)Nc1ccc2c(c1)C(=O)N([C@H](C)CO)C[C@@H](C)[C@H](CN(C)C(=O)Nc1cccc3ccccc13)OCCCC[C@@H](C)O2,> 20 µM (inactive)
13,O=C(NC(=S)/C(=C1\CCCCCN1)[N+](=O)[O-])c1ccccc1,0.12 µM
14,COC(=O)c1ccccc1-c1c2ccc(=N)cc-2oc2cc(N)ccc12,4.57 µM
15,CC(C)NC(=O)N1Cc2cc(C(=O)NC3Cc4ccccc4C3)nc(-c3cccc(-c4cccnc4)c3)c2[C@@H]1CCO,7.2 µM
16,COc1cccc2c1C(=O)c1c(O)c3c(c(O)c1C2=O)C[C@@](O)(C(C)=O)C[C@@H]3O[C@H]1C[C@H](N)[C@H](O)[C@H](C)O1,0.359 µM
17,O=C(Nc1cccc(N2C(=O)C=CC2=O)c1)c1cccs1,1.22 µM
18,C[C@H](CO)N1C[C@H](C)[C@@H](CN(C)Cc2ccc(Oc3ccccc3)cc2)OCc2ccccc2-c2ccccc2C1=O,7.02 µM
19,N#C[C@H]1[C@H](c2ccc(C#Cc3ccc(F)cc3)cc2)[C@@H](CO)N1C(=O)C1CCC1,> 20 µM (inactive)
20,O=C1/C(=C/c2ccccc2)C[C@@]2(O)C3Cc4ccc(O)c5c4[C@@]2(CCN3CC2CC2)[C@H]1O5,1.34 µM
21,CC1CC(C)C(=O)C(C(CC2CC(=O)NC(=O)C2)OC(=O)CC(=O)c2ccccc2)C1 (stereo unspecified),2.17 µM
22,Cc1csc(NC(=O)c2ccc(N3CCCC3=O)cc2)n1,3.75 µM

row,Compound,AC50
1,CN1C(=O)/C(=N\OC(=O)c2cccc3ccccc23)c2ccccc21,1.85 µM
2,CCC1=C(CC2NCCc3ccccc32)CC2c3cc(OC)c(OC)cc3CCN2C1 (stereo unspecified),1.19 µM
3,Oc1c(Cl)cc(Cl)cc1Sc1cc(Cl)cc(Cl)c1O,3.41 µM
4,Cc1ccc(OC(=O)N(C)C[C@@H]2OCc3ccccc3-c3c(n(C)c4ccccc34)C(=O)N([C@@H](C)CO)C[C@H]2C)cc1,7.67 µM
5,Cc1nc(C)c(C(=O)Nc2ncc([N+](=O)[O-])s2)o1,8.61 µM
6,CCCNC(=O)N1[C@@H](C#N)[C@H](c2ccc(-c3cccc(OC)c3)cc2)[C@@H]1CO,> 20 µM (inactive)
7,CC(=O)OC(C)(C)/C=C/C(=O)C(C)(O)C1C(O)CC2(C)C3CC=C4C(CC(O)C(=O)C4(C)C)C3(C)C(=O)CC12C (stereo unspecified),0.029 µM
8,Cc1[nH]c2ccccc2c1C(c1ccccn1)N1CCC(C(N)=O)CC1 (stereo unspecified),6 µM
9,Cc1noc(C)c1S(=O)(=O)N(C)C[C@H]1OCc2ccccc2-c2c(n(C)c3ccccc23)C(=O)N([C@@H](C)CO)C[C@H]1C,> 20 µM (inactive)
10,COc1ccc(S(=O)(=O)N(C)C[C@H]2Oc3ccc(NC(=O)Nc4ccc(C(F)(F)F)cc4)cc3C(=O)N([C@@H](C)CO)C[C@@H]2C)cc1,> 20 µM (inactive)
11,C[C@@H]1CN([C@@H](C)CO)C(=O)c2c(c3ccccc3n2C)-c2ccccc2CO[C@H]1CN(C)S(=O)(=O)c1ccc([N+](=O)[O-])cc1,> 20 µM (inactive)
12,COCC(=O)N1[C@H](C#N)[C@H](c2ccc(C#Cc3ccccc3F)cc2)[C@H]1CO,2.23 µM
13,O=C(/C=C/c1cccs1)c1ccc(N2CCOCC2)cc1,3.87 µM
14,COc1ccc2c3c([nH]c2c1)[C@H](CO)N(C(=O)Nc1ccc(F)cc1)CC31CN(Cc2cc(F)ccc2F)C1,> 20 µM (inactive)
15,CC(C)(C)CC(C)(C)c1ccc(O)c(Cc2ccc(Cl)cc2Cl)c1,5.5 µM
16,NC(=NCCCCCCN=C(N)/N=C(\N)Nc1ccc(Cl)cc1)/N=C(\N)Nc1ccc(Cl)cc1,10.5 µM
17,COC(=O)c1ccc2nc(NC(=O)C(C)(C)C)sc2c1,2.32 µM
18,CC1OC(CC(=O)O)CC2=C1C(=O)c1c(O)cccc1C2=O (stereo unspecified),0.0869 µM
19,Cn1cc(C2=C(c3cn(CCCSC(=N)N)c4ccccc34)C(=O)NC2=O)c2ccccc21,0.305 µM
20,COC(=O)C[C@](O)(CCCC(C)(C)O)C(=O)O[C@@H]1C(OC)=C[C@]23CCCN2CCc2cc4c(cc2[C@H]13)OCO4,< 0.0046 µM
21,CC1=C(C#N)c2nc(N)c(C#N)c(C)c2/C1=C\c1ccccc1,3.57 µM
22,CCN(CC)C(=O)c1ccc(NC(=O)Nc2ccccc2F)cc1,1.86 µM

row,Compound,AC50
1,CC1=CC(C)(C)N=C(Nc2nc(C)c3cc(C)cc(C)c3n2)N1,2.49 µM
2,CC1CCCC=CC2CC(OC(=O)CN(C)C)CC2C(O)C=CC(=O)O1 (stereo unspecified),0.0509 µM
3,COc1ccc(/C=C\c2nc(=O)c3ccccc3o2)cc1,9.73 µM
4,C[C@@H]1CN([C@@H](C)CO)C(=O)c2ccccc2-c2ccccc2CO[C@@H]1CN(C)C(=O)c1cc(Cl)cc(Cl)c1,> 20 µM (inactive)
5,COc1ccc(S(=O)(=O)Nc2ccc3c(c2)C(=O)N([C@H](C)CO)C[C@H](C)[C@@H](CN(C)Cc2ccc(C(F)(F)F)cc2)OCCCC[C@@H](C)O3)cc1,8.37 µM
6,CC(C)[C@H](CO)Nc1nc(Nc2cccc(Cl)c2)c2ncn(C(C)C)c2n1,3.58 µM
7,CC1CCOC(=O)C=CC=CC(=O)OC2CC3OC4C5OC5(C)C(O)CC4(COC(=O)C1O)C2(C)C31CO1 (stereo unspecified),0.0338 µM
8,CCc1csc(N2[C@H](C#N)[C@H](c3ccc(C#Cc4ccc(F)cc4)cc3)[C@H]2CO)n1,> 20 µM (inactive)
9,CN(C)c1ccc(C=c2c3cc(O)ccc3n3c2cc(-c2ccccc2)[n+]3C)cc1,2.46 µM
10,CCC(C)(O)C(=O)OC1C(=O)OC2CC3C(C)=CC(=O)C(O)C3(C)C3C4(O)OCC23C1C(C)C4O (stereo unspecified),0.0228 µM
11,C[C@H](CO)N1C[C@H](C)[C@H](CN(C)S(=O)(=O)c2ccc([N+](=O)[O-])cc2)OCc2ccccc2-c2c(n(C)c3ccccc23)C1=O,9.88 µM
12,O=C1c2c(O)ccc(O)c2C(=O)c2c(NCCNCCO)ccc(NCCNCCO)c21,1.18 µM
13,CC[C@H]1CN2CCc3cc(OC)c(OC)cc3C2C[C@@H]1CC1NCCc2cc(OC)c(OC)cc21 (stereo partly specified),0.011 µM
14,CC(=O)OCC12CC(OC(=O)CC(C)C)C(C)=CC1OC1C(O)C(OC(C)=O)C2(C)C12CO2 (stereo unspecified),0.00346 µM
15,C[C@@H]1C[C@@H]([C@H](O)CC2CC(=O)NC(=O)C2)C(=O)[C@@H](C)C1,0.199 µM
16,O=C(Nc1nc2ccccc2s1)c1ccc(OCC2CCCO2)cc1 (stereo unspecified),10.2 µM
17,OC1CC2CCC(C1)N2CCCN1c2ccccc2Sc2ccc(Cl)cc21 (stereo unspecified),9.1 µM
18,N#CC(C#N)=NNc1cccc(Cl)c1,9.25 µM
19,COc1ccc(CN2CC3(CN(C(=O)Cc4ccccc4)C3)c3c([nH]c4cc(OC)ccc34)[C@@H]2CO)cc1,> 20 µM (inactive)
20,[O-]C(=C(C(=S)Nc1cccc2ccccc12)[n+]1ccccc1)c1ccc2c(c1)OCCO2,> 20 µM (inactive)
